Measured values from patent publication US5736545A, “Azolyl piperazinyl phenyl oxazolidinone antimicrobials” (Pharmacia & Upjohn Company, priority 1997, dated 1998).
In brackets after ≈: the same amount, converted by molar mass. Read-outs that look alike come from different tables or passages of the source.

Assays:
S. aureus UC ® 9213 = assay: In vitro MIC by agar dilution (NCCLS), Gram-positive bacteria: S. aureus; assay type: cell-based, Staphylococcus aureus; conditions: for MIC: Staphylococcus aureus
From the text: The oxazolidinone antibacterial agents of this invention have useful activity against a variety of organisms. The in vitro activity of compounds of this invention can be assessed by standard testing procedures such as the determination of minimum inhibitory concentration (MIC) by agar dilution as described in "Methods for Dilution Antimicrobial Susceptibility Tests for Bacteria That Grow Aerobically" (MFT) published January 1983 by the National Committee for Clinical Laboratory Standards, 771 East Lancaster Avenue, Villanova, Pa. 19084, USA. The activity of selected compounds of this invention against Staphylococcus aureus and Streptococcus pneumoniae are shown in Table 1.
^a Minimum inhibitory concentration: lowest concentration of drug
(μg/mL) that inhibits visible growth of the organism.

E. Faecalis UC ® 9217 = assay: In vitro MIC by agar dilution (NCCLS), Gram-positive bacteria: E. faecalis; assay type: cell-based; conditions: for MIC: Enterococcus faecalis
[1] = UC9213, S. aureus UC 9213, agar dilution, read-out: MIC (minimum inhibitory concentration: lowest concentration of drug that inhibits visible growth of the organism)
[2] = UC9217, E. Faecalis UC 9217, agar dilution, read-out: MIC (minimum inhibitory concentration: lowest concentration of drug that inhibits visible growth of the organism)

Compound	MIC (S. aureus UC ® 9213; [1])	MIC (E. Faecalis UC ® 9217; [2])	further results
CC(=O)NC[C@H]1CN(c2ccc(N3CCN(c4nc5ccccc5s4)CC3)c(F)c2)C(=O)O1 [Example 1, (S)--N--[[3-[4-[4-(2-Benzothiazolyl)-1-piperazinyl]-3-fluorophenyl]-2-oxo-5-oxazolidinyl]methyl]acetamide]	4 µg/mL (≈ 8.52 µM)	2 µg/mL (≈ 4.26 µM)	–
CC(=O)NC[C@H]1CN(c2ccc(N3CCN(c4ncc([N+](=O)[O-])s4)CC3)c(F)c2)C(=O)O1 [Example 2, (S)--N--[[3-[3-Fluoro-4-[4-(5-nitrothiazol-2-yl)-1-piperazinyl]phenyl]-2-oxo-5-oxazolidinyl]methyl]acetamide]	2 µg/mL (≈ 4.31 µM)	2 µg/mL (≈ 4.31 µM)	–
CC(=O)NC[C@H]1CN(c2ccc(N3CCN(c4nc5ccccc5o4)CC3)c(F)c2)C(=O)O1 [Example 3, (S)--N--[[3-[4-[4-(2-Benzoxazolyl)-1-piperazinyl]-3-fluorophenyl]-2-oxo-5-oxazolidinyl]methyl]acetamide]	2 µg/mL (≈ 4.41 µM)	2 µg/mL (≈ 4.41 µM)	–
CC(=O)NC[C@H]1CN(c2ccc(N3CCN(c4nc5cc([N+](=O)[O-])ccc5o4)CC3)c(F)c2)C(=O)O1 [Example 4, (S)--N--[[3-[3-Fluoro-4-[4-(5-nitrobenzoxazol-2-yl)-1-piperazinyl]phenyl]-2-oxo-5-oxazolidinyl]methyl]acetamide]	1 µg/mL (≈ 2.01 µM)	1 µg/mL (≈ 2.01 µM)	–
CC(=O)NC[C@H]1CN(c2ccc(N3CCN(c4nccs4)CC3)c(F)c2)C(=O)O1 [Example 5, (S)--N--[[3-[3-Fluoro-4-[4-(2-thiazolyl)-1-piperazinyl]phenyl]-2-oxo-5-oxazolidinyl]methyl]acetamide]	2 µg/mL (≈ 4.77 µM)	1 µg/mL (≈ 2.38 µM)	–
CC(=O)NC[C@H]1CN(c2ccc(N3CCN(c4nc5ccc([N+](=O)[O-])cc5s4)CC3)c(F)c2)C(=O)O1 [Example 6, (S)--N--[[3-[3-Fluoro-4-[4-(6-nitrobenzothiazol-2-yl)-1-piperazinyl]phenyl]-2-oxo-5-oxazolidinyl]methyl]acetamide]	0.5 µg/mL (≈ 0.972 µM)	0.5 µg/mL (≈ 0.972 µM)	–
CC(=O)NC[C@H]1CN(c2ccc(N3CCN(c4nc5cc(F)ccc5o4)CC3)c(F)c2)C(=O)O1 [Example 7, (S)--N--[[3-[3-Fluoro-4-[4-(5-fluorobenzoxazol-2-yl)-1-piperazinyl]phenyl]-2-oxo-5-oxazolidinyl]methyl]acetamide]	4 µg/mL (≈ 8.48 µM)	4 µg/mL (≈ 8.48 µM)	–
CC(=O)NC[C@H]1CN(c2ccc(N3CCN(c4nc5ccc(F)cc5o4)CC3)c(F)c2)C(=O)O1 [Example 8, (S)--N--[[3-[3-Fluoro-4-[4-(6-fluorobenzoxazol-2-yl)-1-piperazinyl]phenyl]-2-oxo-5-oxazolidinyl]methyl]acetamide]	2 µg/mL (≈ 4.24 µM)	1 µg/mL (≈ 2.12 µM)	–
CC(=O)NC[C@H]1CN(c2ccc(N3CCN(c4nc5cccc(F)c5o4)CC3)c(F)c2)C(=O)O1 [Example 9, (S)--N--[[3-[3-Fluoro-4-[4-(7-fluorobenzoxazol-2-yl)-1-piperazinyl]phenyl]-2-oxo-5-oxazolidinyl]methyl]acetamide]	1 µg/mL (≈ 2.12 µM)	1 µg/mL (≈ 2.12 µM)	–
CC(=O)NC[C@H]1CN(c2ccc(N3CCN(c4nc5ccc(F)c(F)c5o4)CC3)c(F)c2)C(=O)O1 [Example 10, (S)--N--[[3-[3-Fluoro-4-[4-(6,7-difluorobenzoxazol-2-yl)-1-piperazinyl]phenyl]-2-oxo-5-oxazolidinyl]methyl]acetamide]	2 µg/mL (≈ 4.09 µM)	2 µg/mL (≈ 4.09 µM)	–
CC(=O)NC[C@H]1CN(c2ccc(N3CCN(C4=NCCS4)CC3)c(F)c2)C(=O)O1 [Example 11, (S)--N--[[3-[4-[4-(4,5-Dihydro-2-thiazolyl)-1-piperazinyl]-3-fluorophenyl]-2-oxo-5-oxazolidinyl]methyl]acetamide]	2 µg/mL (≈ 4.74 µM)	1 µg/mL (≈ 2.37 µM)	–
CC(=O)NC[C@H]1CN(c2ccc(N3CCN(C4=NCCO4)CC3)c(F)c2)C(=O)O1 [Example 12, (S)--N--[[3-[4-[4-(4,5-Dihydro-2-oxazolyl)-1-piperazinyl]-3-fluorophenyl]-2-oxo-5-oxazolidinyl]methyl]acetamide]	32 µg/mL (≈ 78.9 µM)	4 µg/mL (≈ 9.87 µM)	–
CC(=O)NC[C@H]1CN(c2ccc(N3CCN(c4nnnn4-c4ccccc4)CC3)c(F)c2)C(=O)O1 [Example 13]	4 µg/mL (≈ 8.32 µM)	4 µg/mL (≈ 8.32 µM)	–
CC(=O)NC[C@H]1CN(c2ccc(N3CCN(C4=NC(=O)CS4)CC3)c(F)c2)C(=O)O1 [Example 15]	2 µg/mL (≈ 4.59 µM)	1 µg/mL (≈ 2.3 µM)	–
CC(=O)NC[C@H]1CN(c2ccc(N3CCN(c4nncs4)CC3)c(F)c2)C(=O)O1 [Example 16, (S)--N--[[3-[3-Fluoro-4-[4-(1,3,4-thiadiazol-2-yl)-1-piperazinyl]phenyl]-2-oxo-5-oxazolidinyl]mehtyl]acetamide]	1 µg/mL (≈ 2.38 µM)	1 µg/mL (≈ 2.38 µM)	–
CC(=O)NC[C@H]1CN(c2ccc(N3CCN(c4nnc(C)s4)CC3)c(F)c2)C(=O)O1 [Example 17, (S)--N--[[3-[3-Fluoro-4-[4-(5-methyl-1,3,4-thiadiazol-2-yl)-1-piperazinyl]phenyl]-2-oxo-5-oxazolidinyl]methyl]acetamide]	0.5 µg/mL (≈ 1.15 µM)	1 µg/mL (≈ 2.3 µM)	–
CC(=O)NC[C@H]1CN(c2ccc(N3CCN(c4nnc(N)s4)CC3)c(F)c2)C(=O)O1 [Example 18]	2 µg/mL (≈ 4.59 µM)	2 µg/mL (≈ 4.59 µM)	–
CCOC(=O)c1nnc(N2CCN(c3ccc(N4C[C@H](CNC(C)=O)OC4=O)cc3F)CC2)s1 [Example 19, (S)--N--[[3-[4-[4-(5-Ethoxycarbonyl-1,3,4-thiadiazol-2-yl)-3-fluoro-1-piperazinyl]phenyl]-2-oxo-5-oxazolidinyl]methyl]acetamide]	4 µg/mL (≈ 8.12 µM)	2 µg/mL (≈ 4.06 µM)	–
CC(=O)NC[C@H]1CN(c2ccc(N3CCN(c4nnc(C(F)(F)F)s4)CC3)c(F)c2)C(=O)O1 [Example 20, (S)--N--[[3-[3-Fluoro-4-[4-(5-trifluoromethyl-1,3,4-thiadiazol-2-yl)-1-piperazinyl]phenyl]-2-oxo-5-oxazolidinyl]methyl]acetamide]	4 µg/mL (≈ 8.19 µM)	2 µg/mL (≈ 4.09 µM)	–
CC(=O)NC[C@H]1CN(c2ccc(N3CCN(c4n[nH]c(=O)s4)CC3)c(F)c2)C(=O)O1 [Example 24, (S)--N--[[3-[3-Fluoro-4-[4-(5-oxo-1,3,4-thiadiazol-2-yl)-1-piperazinyl]phenyl]-2-oxo-5-oxazolidinyl]methyl]acetamide]	1 µg/mL (≈ 2.29 µM)	1 µg/mL (≈ 2.29 µM)	–
CC(=O)NC[C@H]1CN(c2ccc(N3CCN(c4nc(C)ns4)CC3)c(F)c2)C(=O)O1 [Example 25]	2 µg/mL (≈ 4.6 µM)	1 µg/mL (≈ 2.3 µM)	–
CC(=O)NC[C@H]1CN(c2ccc(N3CCN(c4nc(=O)n(-c5ccccc5)s4)CC3)c(F)c2)C(=O)O1 [Example 26, (S)--N--[[3-[3-Fluoro-4-[4-(2-phenyl-3-oxo-1,2,4-thiadiazol-5-yl)-1-piperazinyl]phenyl]-2-oxo-5-oxazolidinyl]methyl]acetamide]	8 µg/mL (≈ 15.6 µM)	4 µg/mL (≈ 7.8 µM)	–
CC(=O)NC[C@H]1CN(c2ccc(N3CCN(c4nnc(C)o4)CC3)c(F)c2)C(=O)O1 [Example 27, (S)--N--[[3-[3-Fluoro-4-[4-(5-methyl-1,3,4-oxadiazol-2-yl)-1-piperazinyl]phenyl]-2-oxo-5-oxazolidinyl]methyl]acetamide]	4 µg/mL (≈ 9.56 µM)	4 µg/mL (≈ 9.56 µM)	–
CN[C@H](CC(C)C)C(=O)N[C@H]1C(=O)N[C@@H](CC(N)=O)C(=O)N[C@H]2C(=O)N[C@H]3C(=O)N[C@H](C(=O)N[C@H](C(=O)O)c4cc(O)cc(O)c4-c4cc3ccc4O)[C@H](O)c3ccc(c(Cl)c3)Oc3cc2cc(c3O[C@@H]2O[C@H](CO)[C@@H](O)[C@H](O)[C@H]2O[C@H]2C[C@](C)(N)[C@H](O)[C@H](C)O2)Oc2ccc(cc2Cl)[C@H]1O [Vancomycin, reference compound]	–	–	MIC (S. aureus UC ® 9213; UC9213, read-out: MIC (minimum inhibitory concentration: lowest concentration of drug that inhibits visible growth of the organism)): 1 µg/mL (≈ 0.69 µM); MIC (E. Faecalis UC ® 9217; UC9217, read-out: MIC (minimum inhibitory concentration: lowest concentration of drug that inhibits visible growth of the organism)): 4 µg/mL (≈ 2.76 µM)
CC(=O)NC[C@H]1CN(c2ccc(N3CCNCC3)c(F)c2)C(=O)O1 [XLII, reference compound]	> 64 µg/mL	32 µg/mL (≈ 95.1 µM)	–
(S)--N--[[3-[4-[3-Fluoro-4-[(methyl-5-tetrazolyl)-1-piperazinyl]phenyl]-2-oxo-5-oxazolidinyl]methyl]acetamide [Example 14]	–	–	MIC (minimum inhibitory concentration: lowest concentration of drug that inhibits visible growth of the organism) (S. aureus UC ® 9213; S. aureus UC 9213, agar dilution): 4 µg/mL; MIC (minimum inhibitory concentration: lowest concentration of drug that inhibits visible growth of the organism) (E. Faecalis UC ® 9217; E. Faecalis UC 9217, agar dilution): 2 µg/mL
